# Literature values in PMC11785675, “Phase Ib study of the oral PI3Kδ inhibitor linperlisib in patients with advanced solid tumors” (International Journal of Clinical Oncology, 2024).
# Columns and labels:
# patients [1] = conditions: 150 mg twice daily; 12 patients; cited from earlier work
# patients [2] = tested on: patients; design: method as in PMID 31619463; conditions: cited from earlier work
# patients [3] = tested on: patients; design: method as in PMID 27672108; conditions: cited from earlier work
# advanced solid tumors [4] = tested on: advanced solid tumors; design: method as in PMID 27672108; conditions: 48 patients with advanced solid tumors, cited from earlier work
# [5] = tested on: advanced or refractory solid tumors; design: method as in PMID 27915408; conditions: 10 Japanese patients, cited from earlier work
# [6] = tested on: thymic epithelial tumors cells carrying mutant PI3K subunits; design: method as in PMID 27117832; conditions: in vitro; cited from earlier work
# advanced solid tumors [7] = tested on: advanced solid tumors; design: method as in PMID 35288468; conditions: parsaclisib monotherapy; five patients; cited from earlier work
# [8] = comparison drugs; no reference given; cited from earlier work
# HCC cells = tested on: HCC cells; design: method as in PMID 24919154, PMID 33093155; conditions: cited from earlier work
# breast cancer = tested on: breast cancer; design: method as in PMID 24919154, PMID 33093155; conditions: cited from earlier work
smiles,measurement,setting,value
CC[C@H](Nc1ncnc2[nH]cnc12)c1nc2cccc(F)c2c(=O)n1-c1ccccc1 [idelalisib],Grade ≥ 3 TEAE increased ALT,patients [1],25%
same,Grade ≥ 3 TEAE increased AST,patients [1],41.7%
same,Grade ≥ 3 TEAE maculopapular rash,patients [1],25%
same,TEAE increased ALT,patients [1],33.3%
same,TEAE increased AST,patients [1],41.7%
same,TEAE maculopapular rash,patients [1],25%
same,TEAE pyrexia,patients [1],50%
COc1c(OCCCN2CCOCC2)ccc2c1N=C(NC(=O)c1cnc(N)nc1)N1CCN=C21 [copanlisib],"TEAE fatigue, all grade",patients [2],46.0%
same,"TEAE hyperglycemia, grade 3",patients [2],22.2%
same,"TEAE hyperglycemia, grade 4",patients [2],1.6%
same,"TEAE hypertension, all grade",patients [2],41.3%
same,"TEAE hypertension, grade 3",patients [2],30.2%
same,"TEAE hypertension, grade 4",patients [2],0
same,"TEAE hypophosphatemia, grade 3",patients [2],11.1%
same,"TEAE hypophosphatemia, grade 4",patients [2],0
same,"TEAE lymphocyte count decreased, grade 3",patients [2],7.9%
same,"TEAE lymphocyte count decreased, grade 4",patients [2],4.8%
same,Patients with AEs possibly related to copanlisib,patients [3]; 49 patients,86%
same,Drug-related grade 3 AE hyperglycemia,patients [3],30%
same,Drug-related grade 3 AE hypertension,patients [3],14%
same,Drug-related grade 3 AE rash,patients [3],7%
same,"TRAE hyperglycemia, all grades",patients [3],63%
same,"TRAE hypertension, all grades",patients [3],21%
same,"TRAE nausea, all grades",patients [3],37%
same,Patients achieving stable disease,advanced solid tumors [4],15 patients
same,Patients achieving CR,advanced solid tumors [4]; endometrial carcinoma with PIK3CA and PTEN mutations,one
same,Patients with PR,advanced solid tumors [4]; metastatic breast cancer,two
same,3-month PFS rate,[5]; 95% CI 1–40,12%
same,Median PFS,[5]; 95% CI 21–82,52 days
same,CR or PR,[5],no patients achieved a CR or PR
same,DCR,[5],40.0%
CS(=O)(=O)N1CCN(Cc2cc3nc(-c4cccc5[nH]ncc45)nc(N4CCOCC4)c3s2)CC1 [GDC-0941],Antitumor activity,[6],in vitro antitumor activity
CCOc1c([C@H](C)n2nc(C)c3c(N)ncnc32)cc(Cl)c(F)c1[C@@H]1CNC(=O)C1 [parsaclisib],CR or PR,advanced solid tumors [7],none achieved a CR or PR
"C[C@H](Nc1ncnc2[nH]cnc12)c1cc2cccc(Cl)c2c(=O)n1-c1ccccc1 [duvelisib, reference compound]",Route of excretion,[8],predominantly excreted via the intestines
Fc1ccc2[nH]ccc2c1-c1nc(N2CCOCC2)c2sc(CN3CCN(CC4CC4)CC3)cc2n1 [PI-3065],Apoptosis of HCC cells,HCC cells,directly induce apoptosis of HCC cells
same,Growth and metastasis of breast cancer,breast cancer,significantly inhibit growth and metastasis of breast cancer
